{
  "source": "patent US20170112896A1",
  "about": "“SMALL MOLECULE RAC OR RHO INHIBITORS” (Ohio State Innovation Foundation, priority 2014, published 2017)",
  "key": {"[1]": {"tested_on": "Akt, Mek and Erk phosphorylation in A549 cells", "test": "Western blot of Akt, Mek, Erk phosphorylation in A549 cells", "format": "cell-based", "details": "10 μM, 10 min"}, "[2]": {"tested_on": "actin filaments in A549 cells", "test": "Actin filament staining (phalloidin-FITC) and cell morphology", "format": "cell-based", "details": "cells exposed to peptide"}, "[3]": {"tested_on": "Akt, Mek and Erk phosphorylation in H1975 cells", "test": "Western blot of Akt, Mek, Erk phosphorylation in H1975 cells", "format": "cell-based", "details": "10 μM, 10 min"}, "[4]": {"tested_on": "EGF receptor phosphorylation", "test": "IP/Western blot of EGFR phosphorylation", "format": "cell-based", "details": "13 μM", "text": "(§1) Two well characterized Ras effector pathways are the Raf-Mek-Erk and PI3K-Akt signaling pathways (Karnoub, A. E. et al. (2008) Nat Rev. Mol. Cell Biol. 9:517). To determine whether the cyclic peptides inhibited the intracellular Ras activity, Applicant monitored the phosphorylation levels of Mek, Erk, and Akt in cells before and after treatment with the Ras inhibitors. […] In order to rule out that the observed downregulation of P-Mek, P-Erk and P-Akt is caused by inhibition of EGFR signaling, the effect of Cyclosrasin 9A5 on the phosphorylation of the EGFR was tested by performing an IP/Western Blot experiment (FIG. 3E). Active, signaling EGFR is highly autohophosphorylated."}, "[5]": {"tested_on": "Akt, Mek and Erk phosphorylation in H1650 cells", "test": "Western blot of Akt, Mek, Erk phosphorylation in H1650 cells", "format": "cell-based", "details": "10 μM, 10 min"}, "[6]": {"tested_on": "Akt, Mek and Erk phosphorylation in H1299 cells", "test": "Western blot of Ras signaling (Akt, Mek, Erk phosphorylation) in H1299 cells", "format": "cell-based", "details": "for IC50: 10 min treatment", "text": "as §1"}, "[7]": {"target": "T1, Ras(G12V)-Raf RBD interaction (Homo sapiens, UniProt P01116, G12V)", "T1 construct": "The G12V mutant K-Ras (amino acids 1-185) was recombinantly fused to glutathione 5-transferase (GST) at its N-terminus; GST (N, cleaved yes); made in house; host or cells: Escherichia coli BL21", "T1 sequence (P01116 1-185 isoform P01116-2 G12V)": "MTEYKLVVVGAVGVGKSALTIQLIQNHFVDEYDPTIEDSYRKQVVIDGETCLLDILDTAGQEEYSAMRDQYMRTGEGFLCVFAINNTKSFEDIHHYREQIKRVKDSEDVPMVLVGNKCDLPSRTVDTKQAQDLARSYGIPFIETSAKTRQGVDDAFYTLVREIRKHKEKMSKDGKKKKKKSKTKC", "test": "HTRF assay, inhibition of Ras-Raf RBD interaction", "format": "binding", "details": "relative to 9A1", "procedure": "Recombinant HA-tagged K-Ras (no GST, 50 nM), GST-Raf RBD (50 nM each), a monoclonal anti-HA antibody labeled with acceptor d2 (2 μg/mL), a monoclonal anti-GST antibody labeled with donor Tb (0.25 μg/mL) (Cisbio), and increasing concentrations of cyclic peptide (0-20 μM) were mixed in PBS (total volume of 20 μL) in a 384-well plate. The plate was incubated overnight at 4° C. and the HTRF signal was measured on a Molecular Devices Spectramax M5 or a Tecan infinite M1000 Pro plate reader. The data were analyzed by Prism 6.0 from Graphpad Software, Inc. (La Jolla, Calif.) and IC50 values were obtained by fitting the data to dose-response-inhibition curve."}, "[8]": {"tested_on": "Rac and Rho signaling (cofilin, Paxilin, FAK, Mek Ser298, c-Raf Ser338) in H1299 cells", "test": "Western blot of effector proteins of Rac and Rho signaling in H1299 cells", "format": "cell-based", "details": "13 μM"}},
  "note": "“Also recorded” adds a separate entry of the source. Read-outs that look alike come from different tables or passages of the source. Square brackets hold non-standard residues; d marks the D form. Peptide text beside a SMILES is read from it. Phe(4-F) = N[C@@H](Cc1ccc(F)cc1)C(=O)O; d2Nal = N[C@H](Cc1ccc2ccccc2c1)C(=O)O; dNle = CCCC[C@@H](N)C(=O)O",
  "data": [
    {"smiles": "CCCC[C@H]1NC(=O)[C@H](Cc2ccc(F)cc2)NC(=O)[C@H](CCCNC(=N)N)NC(=O)[C@@H](Cc2ccc3ccccc3c2)NC(=O)[C@H](CCCNC(=N)N)NC(=O)[C@H](CCCNC(=N)N)NC(=O)[C@H](CCCNC(=N)N)NC(=O)[C@@H](C)NC(=O)[C@H]([C@@H](C)O)NC(=O)[C@H](Cc2c[nH]c3ccccc23)NC(=O)[C@H](CCC(N)=O)NC1=O", "note": "[Cyclorasin 9A5, (Trp-Thr-ala-Arg-Arg-Arg-nal-Arg-Fpa-nle-Gln)] (cyclo(WT[dA]RRR[d2Nal]R[Phe(4-F)][dNle]Q))", "values": [
      {"measurement": "Mek, Erk and Akt phosphorylation", "setting": "[1]", "value": "significant Mek and Erk phosphorylation remained"},
      {"measurement": "cell morphology", "setting": "[2]", "value": "rapid morphological changes"},
      {"measurement": "Mek, Erk and Akt phosphorylation", "setting": "[3]", "value": "almost completely abolished; also recorded: can be inhibited"},
      {"measurement": "EGFR phosphorylation level", "setting": "[4]", "value": "does no affect; also recorded: no effect"},
      {"measurement": "Mek, Erk and Akt phosphorylation", "setting": "[5]", "value": "almost completely abolished; also recorded: can be inhibited"},
      {"measurement": "cell permeability / intracellular fluorescence", "setting": "A549 lung cancer cells", "value": "improved cell permeability"},
      {"measurement": "basal phosphorylation of Mek and Akt", "setting": "[6]; H1299 cells unstimulated with EGF, 10 μM for 10 min", "value": "inhibited"},
      {"measurement": "Mek, Erk and Akt phosphorylation", "setting": "[6]; H1299 cells, 10 μM, 10 min", "value": "almost completely abolished"},
      {"measurement": "EGF-induced phosphorylation of Akt and Mek", "setting": "[6]; H1299 cells, 13 μM, 5 min", "value": "significant reduction"},
      {"measurement": "phosphorylation level of Erk", "setting": "[6]; H1299 cells, 13 μM, time course", "value": "decreased, but to a lesser extent and at a later time point"},
      {"measurement": "EGF-induced phosphorylation of Akt and Mek", "setting": "[6]; H1299 cells, 13 μM, ≧10 min", "value": "completely abolished"},
      {"measurement": "IC50", "setting": "[6]; H1299 cells, read-out: IC50, inhibition of Akt phosphorylation", "value": "~5", "unit": "µM"},
      {"measurement": "IC50", "setting": "[6]; H1299 cells, read-out: IC50, inhibition of Mek phosphorylation", "value": "~5", "unit": "µM"},
      {"measurement": "higher potency than 9A1 against K-Ras", "setting": "[7]", "value": 3, "unit": "fold"},
      {"measurement": "phosphorylation of Paxilin (Tyr118), FAK (Tyr397), Mek (Ser298) and c-Raf (Ser338)", "setting": "[8]", "value": "dephosphorylated"},
      {"measurement": "phosphorylation of cofilin", "setting": "[8]", "value": "decreased"}
    ]}
  ]
}
